Consider five compounds from patent publication US7772197B2, “1,3,5-triazines for treatment of viral diseases” (1,3,5-Triazines for Treatment of Viral Diseases, priority 2002, dated 2010).

Read-outs that look alike come from different tables or passages of the source.

The test system of data set [1] is bovine viral diarrhea virus (BVDV) Singer strain. Put plainly: Treatment of BVDV-infected BT cells. The format is cell-based. The settings on record: Bovine viral diarrhea virus isolates and strains. Here is the method:
The BVDV strain used for drug testing was the Singer strain. This virus also causes a cytopathic effect that is measurable and allows estimation of the level of infection. The visible cytopathology can be used as an endpoint for titrating the virus by 50% tissue culture infectious dose (TCID50). The BVDV was propagated in bovine turbinate (BT cells). The virus TCID50 was determined by counting the cytopathic effect at the endpoint dilution. Briefly, confluent BT cells in 96-well plates were infected with the virus at 8 independent serial 10-fold dilutions. All the plates were incubated for five days at 37° C. in 5% CO2. Each well was scored as positive or negative appearance of visible cytopathic effect. The titers were calculated by the method of Reed and Muench, Am. J. Hyg. 27:493-497 (1938), and the mean titer and standard deviation for each of the 3 replicates for each drug concentration and the positive and negative control were calculated.
Virus susceptible cells (CV-1 or BT cells) were seeded in 96-well plates at 2×10^4 cells/well. The virus was inoculated onto the cell monolayers at a MOI of 0.001˜0.002 to keep 30 plaque forming units (pfu) in each well. The inoculum was maintained in 37° C. for about one hour and the supernatant was discarded. Fresh media containing appropriate drug concentration was added in each well. […] The virus titer was determined as described above. […]

Data set [2] deals with Measles virus (MV) Nagahata strain. As to the kind of experiment: Treatment of measles virus-infected CV-1 cells. The data set is classed as cell-based. To be noted: Measles morbillivirus. Here is the method: MV Nagahata strain was used for drug testing. Compared to some laboratory strains, this virus strain replicates lytically in primary human embryonic lung cells and causes extensive cytopathic effect during acute infection. The virus stock was prepared by growing the virus on CV-1 cells at a MOI of 0.01. The titer of the virus stock was determined by plaque formation assay after series dilution.
Virus susceptible cells (CV-1 or BT cells) were seeded in 96-well plates at 2×10^4 cells/well. The virus was inoculated onto the cell monolayers at a MOI of 0.001˜0.002 to keep 30 plaque forming units (pfu) in each well. The inoculum was maintained in 37° C. for about one hour and the supernatant was discarded. Fresh media containing appropriate drug concentration was added in each well. Untreated control was run in parallel. Each drug was tested in triplicate. Three days after infection, cytopathic effect (CPE) was examined in the untreated control wells. […] The plates went through one “freeze-thaw” cycle to release intracellular virus. The virus stock was saved for next round of passage. The virus titer was determined as described above. Virus at a titer of 10^5˜10^6 pfu/ml was produced by this method.

The subject of another data set is HIV-1 LAI. Put plainly: Treatment of HIV-1-infected MT-2 cells with nucleoside analogues, p24 ELISA. The settings on record: for EC50: Human immunodeficiency virus 1, MT2, wild-type HIV strain LAI, MT-2 cells. The data set is classed as cell-based. The protocol:
The strains of HIV-1 used for primary drug screening are HIV-1 LAI or the appropriate strain of NRTI resistant HIV for studies of cross-resistance. Virus was propagated on MT-2 cells at an multiplicity of infection (MOI) of 0.01 to generate virus stocks. Briefly, the MT-2 cells were suspended in RPMI 1640 media supplemented with 10% fetal bovine serum, streptomycin and penicillin (cRPMI) and grown in a 37° C. incubator containing 5% CO2. Serial dilution of the virus and infection of MT-2 cells were followed by an ELISA detecting the capsid protein of HIV-1 (p24) and used to determine the titer of the virus stocks (50% tissue culture infectious dose (TCID50)). The ELISA was performed according to the manufacturer's instructions. The MT-2 cells are also used for visualizing the cytopathic effects of HIV-1 growth (e.g. syncytia formation).
(§1) 0.1 ml of a 3×10^5 cells/ml MT-2 cell suspension were seeded in 96-well plates at 3×10^4 cells/well. The compounds to be assayed were diluted in a separate 96-well at ten times (10×) the concentration needed for the screen. 22 μl of the 10× compounds was then added to the wells in triplicate except for six control wells, containing uninfected MT-2 cells alone (3 wells) and untreated HIV-infected MT-2 cells (3 wells). This was followed by the addition of HIV-1 at an MOI of 0.01, except for the three wells serving as the uninfected control. 0.1 ml of cRPMI was added to the uninfected well instead of virus. After the addition of virus, the 96-well plate was centrifuged at 1,200×g for two hours to enhance the adsorption of the virus by the MT-2 cells (see, e.g., O'Doherty, J. Virol. 74:10074-10080 (2000)). After the centrifugation step, the 96-well plate was then incubated in a 37° C. incubator containing 5% CO2 for three days. At the end of this time period the virus and cells were mixed by gentle pipetting followed by a 1 minute spin at 600×g to pellet the cells. The supernatant of each well was then serially diluted 1,000-fold into new 96-well plates to serve as inoculum for the next passage and assayed by ELISA for the amount of p24 produced. The next passage was performed as described above, except that the virus used to infect the cells was derived from the 1,000-fold dilution plate. To generate an EC50 value, half-log concentrations of mutagenic nucleoside or nucleotide analogue capable of eradicating virus in a single passage are tested as above to generate a dose-response curve.

A further data set concerns HIV. Put plainly: HIV infected SCID-Hu mice. The format is in vivo. To be noted: 30 mg/kg/day. The protocol:
After completion of this toxicology experiment, SN1212 was tested in HIV infected SCID-Hu mice. […] The discordance between viral infectivity and conventional surrogate markers of viral load, such as p24 or HIV RNA, is not surprising, as it has also been observed in vitro, and reflects the increased proportion of non-infectious viral particles in the presence of SN1212. It is also interesting to note that, of the treated groups, the immunologic profile of the SN1212 groups most closely resemble that of the uninfected group. This is compatible with the finding that infection with less “fit” viruses provides a relative clinical benefit by preserving cellular immunity.

The next data set concerns HIV-1 LAI-M184V. Put plainly: Sensitivity of NRTI-resistant HIV strain M184V, MT-2 cells. The format is cell-based. To be noted: Human immunodeficiency virus 1, MT2. The protocol:
as §1, with “plate.” for “plate. To generate an EC50 value, half-log concentrations of mutagenic nucleoside or nucleotide analogue capable of eradicating virus in a single passage are tested as above to generate a dose-response curve.”
(§2) To determine if there is resistance of HIV NRTI resistant strains to mutagenic nucleoside analogues, NRTI resistant strains were grown in the presence of 5-aza-dC to determine whether the EC50 for 5-aza-dC is different from the WT strain (HIV-1 LAI). […] Growth of HIV NRTI resistant strains in the presence of the appropriate concentration of NRTI was used as a positive control.
(§3) Three HIV NRTI resistant strains (HIV-1 LAI-M184V, HIV-1 RTMDR1, with 74V, 41L, 106A and 215Y mutations, and HIV-1 RTMC, with 67N, 70R, 215F and 219Q mutations) were used to test the effectiveness of 5-aza-dC. […] Mutations include: M41L, E44D, A62V, K65R, D67N, T69DN, T69S_SS, K70R, L74V, V75I, F77L, Y115F, F116Y, V118I, Q151M, M184V, L210W, T215F and K219QE.
(§4) The effectiveness of DHAdC was tested against wild-type HIV strains and NRTI resistant HIV strains as described in Example 2. The following strains were tested: HIV-1 LAI, wild-type; HIV-I LAI-M184V-M184V mutation with resistance to lamivudine (3TC); HIV-1 RTMDR1-74V, 41L, 106A and 215Y mutations with resistance to zidovudine, didanosine, nevirapine and other non-nucleoside reverse transcriptase inhibitors; and HIV-1 RTMC-67N, 70R, 215F and 219Q with resistance to zidovudine.

For data set [3], the system named is HIV-1 RTMC, with 67N, 70R, 215F and 219Q mutations. Put plainly: Sensitivity of NRTI-resistant HIV strain RTMC, MT-2 cells. The format is cell-based. To be noted: Human immunodeficiency virus 1, MT2. The protocol: as §1, with “plate.” for “plate. To generate an EC50 value, half-log concentrations of mutagenic nucleoside or nucleotide analogue capable of eradicating virus in a single passage are tested as above to generate a dose-response curve.”
as §2, §3, §4

In data set [4] the test system is HIV-1 RTMDR1, with 74V, 41L, 106A and 215Y mutations. As to the kind of experiment: Sensitivity of NRTI-resistant HIV strain RTMDR1, MT-2 cells. The data set is classed as cell-based. To be noted: Human immunodeficiency virus 1, MT2. Here is the method:
as §1, with “plate.” for “plate. To generate an EC50 value, half-log concentrations of mutagenic nucleoside or nucleotide analogue capable of eradicating virus in a single passage are tested as above to generate a dose-response curve.”
as §2
Three HIV NRTI resistant strains (HIV-1 LAI-M184V, HIV-1 RTMDR1, with 74V, 41L, 106A and 215Y mutations, and HIV-1 RTMC, with 67N, 70R, 215F and 219Q mutations) were used to test the effectiveness of 5-aza-dC. […]

For data set [5] the following is noted: cited from earlier work.
Data set [6] in a line: Cytotoxicity on MT-2 cells (MTT). The format is cell-based. To be noted: human. The protocol:
For each compound, cytotoxicity was evaluated on MT-2 cells. MT-2 cells were seeded at 3×10^4 cells/well in 96-well plates. […] After 5 days growth in a 37° C. incubator containing 5% CO2, MTT was added to a final concentration of 0.5 mg/ml and then incubated for four hours at 37° C. 10% SDS in 0.02 N HCl was added to lyse the cells overnight at 37° C. The plates were read on a Tecan Genius microplate reader at wavelengths of 570 nm/650 nm. The dose response curve was graphed by comparing the treated cells with the untreated control and the IC50 was determined for each compound.

The test system of a further data set is HIV-1 RT proviral DNA. As to the kind of experiment: Frequency of mutations to the viral genome induced by 5-aza-dC (sequencing of proviral clones). To be noted: 30 μM. The data set is classed as cell-based. Here is the method:
The viral genomic DNA from cells treated with the deoxyribonucleoside analog 5-aza-dC (30 μM) was purified using a Qiagen DNeasy® Kit. 1 μg of genomic DNA was used to amplify a 1 kb region of the HIV-1 RT proviral DNA by PCR. The PCR product was then cloned into a TOPO® cloning vector. A Millipore Miniprep Kit was used to purify plasmid containing proviral inserts. About 45 positive clones were sequenced in both directions by a Beckman Coulter CEQ 8000. The sequencing results were analyzed and assembled using the DNASTAR Stagman program. Each mutated base was counted and the mutation rate was calculated over the total number of sequenced nucleotides. Sixty-one mutations were found in 26,187 bases sequenced in the 5-aza-dC treated cells. Only one mutation in the drug-free control could be confirmed by sequencing in both directions and thus, the mutation rate in the control may be overestimated. Thus, sequencing of a fragment of the nucleic acid encoding HIV reverse transcriptase has confirmed that 5-aza-dC is mutagenic to the viral genome.

In the case of `Nc1ncn([C@@H]2O[C@H](CO)[C@@H](O)[C@H]2O)c(=O)n1` [Compound 5-aza-C, 5-Azacytidine], the EC50 in [1] turned out to be 10000 nM; in data set [2] it was 15000 nM.
For the compound `CN1CN([C@H]2C[C@H](O)[C@@H](CO)O2)C(=O)N=C1N` [MeDHAdC, 5-methyl-5,6-dihydro-5-azadeoxycytidine], the EC50 in the data set with HIV-1 LAI was found to be 10000 nM.
`Nc1ccn([C@@H]2CS[C@H](CO)O2)c(=O)n1` [Compound 3TC, lamivudine, reference compound]: in the data set with HIV, the “CD4+” value amounted to 6.9%, the “CD4+ CD8+” value was found to be 77% and the “CD8+” value was determined as 4.2%. For the same compound, in the data set with HIV (** p < 0.05), the “HIV-1 RNA” value was 2.0** log copies/10^6 cells, the Viral liter is on record as 0** viruses/10^6 cells and the p24 is reported as 0** pg/10^6 cells. Further, in the data set on HIV-1 LAI-M184V, the EC50 is greater than 32000 nM. In the data set with HIV-1 LAI, this compound registered an EC50 of 45 nM. In [3], this compound showed an EC50 of 330 nM.
For `Cc1cn([C@H]2C[C@H](N=[N+]=[N-])[C@@H](CO)O2)c(=O)[nH]c1=O` [AZT, zidovudine], the EC50 was 10 nM with HIV-1 LAI-M184V, 10 nM in the data set with HIV-1 LAI, 300 nM in data set [3] and 60 nM in data set [4].
Consider `Nc1ncn([C@H]2C[C@H](O)[C@@H](CO)O2)c(=O)n1` [Compound 5-aza-dC, 2′-deoxy-5-azacytidine], for which the “time to 10% degradation” value in [5] (pH 7.0, 25° C.) is 5 h. In addition, the “time to 10% degradation” value in data set [5] (pH 7.0, 50° C.) was 0.5 h. The compound also gave an EC50 in the data set on HIV-1 LAI-M184V of 10 nM. Further, the IC50 at 5 days in [6] is greater than 10000 nM. Moreover, the response in the data set on HIV-1 LAI was half-maximal at 3 nM (EC50). For the same compound, the “eradication of HIV” value in the data set with HIV-1 LAI (viral passage in MT-2 cells) is “capable of eradicating HIV in a single passage”. The compound further showed a concentration for a half-maximal effect (EC50) in data set [3] of 5 nM. Also, the EC50 in [4] stood at 10 nM. Further, the mutation rate % in the data set on HIV-1 RT proviral DNA (1 kb region of HIV-1 RT proviral DNA) came to 0.223%. For the same compound, the MUTATIONS/NUCLEOTIDE in the data set on HIV-1 RT proviral DNA (1 kb region of HIV-1 RT proviral DNA, 26,187 nucleotides sequenced) was 61/. Also, in the data set with HIV-1 RT proviral DNA (number of mutations), the “AΠC CΠA mutations” value was 0, the “AΠT TΠA mutations” value stood at 8, the “CΠG GΠC mutations” value amounted to 13 and the “GΠA AΠG mutations” value is on record as 24. Besides, in the data set on HIV-1 RT proviral DNA (number of mutations), the “GΠT TΠG mutations” value came out at 10 and the “TΠC CΠT mutations” value is recorded as 6.
